Measured values taken from PubChem BioAssay AID330 (DTP/NCI, 2004).
“And” between values parts separate entries of the source, which are not always exact repeats. Equal entries are not always repeated. Inconclusive results and toxic doses are left out.

Test system: P388 leukemia ip, CD2F1 mice, survival T/C
Assay: NCI In Vivo Anticancer Drug Screen. Data for tumor model P388 Leukemia (intraperitoneal) in CD2F1 (CDF1) mice
Settings: endpoint: median survival time, higher = longer survival
In short: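 Mice carrying the transplanted tumor received test compound or vehicle. Survival was recorded in each group, and the value is the treated-group measurement divided by that of the vehicle-treated control group.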

[1] = dose: 50.0 mg/kg/injection, schedule: Q01DX005 (ip), vehicle: saline with Tween-80
[2] = dose: 100.0 mg/kg/injection, schedule: Q01DX005 (ip), vehicle: saline with Tween-80
[3] = dose: 200.0 mg/kg/injection, schedule: Q01DX005 (ip), vehicle: saline with Tween-80
[4] = dose: 50.0 mg/kg/injection, schedule: Q01DX009 (ip), vehicle: saline
[5] = dose: 100.0 mg/kg/injection, schedule: Q01DX009 (ip), vehicle: saline
[6] = dose: 200.0 mg/kg/injection, schedule: Q01DX009 (ip), vehicle: saline
[7] = dose: 60.0 mg/kg/injection, schedule: Q01DX005 (ip), vehicle: Klucel (hydroxypropylcellulose) (HPC)
[8] = dose: 120.0 mg/kg/injection, schedule: Q01DX005 (ip), vehicle: Klucel (hydroxypropylcellulose) (HPC)
[9] = dose: 240.0 mg/kg/injection, schedule: Q01DX005 (ip), vehicle: Klucel (hydroxypropylcellulose) (HPC)
[10] = dose: 25.0 mg/kg/injection, schedule: Q01DX009 (ip), vehicle: Klucel (hydroxypropylcellulose) (HPC)
[11] = dose: 12.5 mg/kg/injection, schedule: Q01DX009 (ip), vehicle: saline with Tween-80
[12] = dose: 25.0 mg/kg/injection, schedule: Q01DX009 (ip), vehicle: saline with Tween-80
[13] = dose: 50.0 mg/kg/injection, schedule: Q01DX009 (ip), vehicle: saline with Tween-80
[14] = dose: 50.0 mg/kg/injection, schedule: Q01DX005 (ip), vehicle: Klucel (hydroxypropylcellulose) (HPC)
[15] = dose: 100.0 mg/kg/injection, schedule: Q01DX005 (ip), vehicle: Klucel (hydroxypropylcellulose) (HPC)
[16] = dose: 60.0 mg/kg/injection, schedule: Q01DX005 (ip), vehicle: saline with Tween-80
[17] = dose: 100.0 mg/kg/injection, schedule: Q01DX009 (ip), vehicle: saline with Tween-80
[18] = dose: 200.0 mg/kg/injection, schedule: Q01DX009 (ip), vehicle: saline with Tween-80
[19] = dose: 60.0 mg/kg/injection, schedule: Q01DX005 (ip), vehicle: saline
[20] = dose: 120.0 mg/kg/injection, schedule: Q01DX005 (ip), vehicle: saline

`COc1ccccc1OCC(O)CNc1ccc(Cl)cc1C(=O)c1ccccc1Cl` (configuration not stated) was tested, and the T/C [1] was 90 % of control, the T/C [2] was 90 % of control and the T/C [3] was 88 % of control.
For `NC(=O)C[n+]1ccccc1`, the T/C [4] was 101 % of control, the T/C [5] was 111 % of control and the T/C [6] was 118 % of control. For the same molecule, the T/C (dose: 400.0 mg/kg/injection, schedule: Q01DX009 (ip), vehicle: saline) was 112 % of control.
With `O=S(=O)(c1cccc(C(F)(F)F)c1)N(CCCCCN(S(=O)(=O)c1cccc(C(F)(F)F)c1)S(=O)(=O)c1cccc(C(F)(F)F)c1)S(=O)(=O)c1cccc(C(F)(F)F)c1` the T/C [7] was 101 % of control, the T/C [8] was 92 % of control and the T/C [9] was 88 % of control.
`Cc1ccc(C)c(NC(=O)Nc2nccs2)c1` was tested, and the T/C [10] was 99 % of control, the T/C (dose: 50.0 mg/kg/injection, schedule: Q01DX009 (ip), vehicle: Klucel (hydroxypropylcellulose) (HPC)) was 90 % of control and the T/C (dose: 200.0 mg/kg/injection, schedule: Q01DX009 (ip), vehicle: Klucel (hydroxypropylcellulose) (HPC)) was 91 % of control.
In the case of `Nc1ccc(S(=O)(=O)n2c(=O)oc3ccc(Br)cc32)cc1`, the T/C (dose: 100.0 mg/kg/injection, schedule: Q04DX002 (ip), vehicle: Klucel (hydroxypropylcellulose) (HPC)) is reported as 93 % of control, the T/C (dose: 200.0 mg/kg/injection, schedule: Q04DX002 (ip), vehicle: Klucel (hydroxypropylcellulose) (HPC)) is reported as 90 % of control and the T/C (dose: 400.0 mg/kg/injection, schedule: Q04DX002 (ip), vehicle: Klucel (hydroxypropylcellulose) (HPC)) is reported as 93 % of control.
With `O=C(NCCCN1CC1)C(=O)NCCCN1CC1` the T/C (dose: 0.78 mg/kg/injection, schedule: Q01DX009 (ip), vehicle: saline) was 156 % of control, the T/C (dose: 1.56 mg/kg/injection, schedule: Q01DX009 (ip), vehicle: saline) was 190 % of control and the T/C (dose: 3.13 mg/kg/injection, schedule: Q01DX009 (ip), vehicle: saline) was 190 % of control.
`O=C(O)c1cc2ccc(Br)cc2[se]1` was tested, and the T/C [4] was 110 % of control, the T/C [5] was 99 % of control and the T/C [6] was 94 % of control.
For `COc1cc2c(cc1OC)-c1c3c(cc4c1[C@@H](C2)N(C)CC4)OCO3`, the T/C (dose: 12.5 mg/kg/injection, schedule: Q01DX009 (ip), vehicle: distilled water + Tween-80) was 107 % of control, the T/C [11] was 106 % of control and the T/C (dose: 25.0 mg/kg/injection, schedule: Q01DX009 (ip), vehicle: distilled water + Tween-80) was 107 % of control. The T/C [12] was 100 % of control, the T/C (dose: 50.0 mg/kg/injection, schedule: Q01DX009 (ip), vehicle: distilled water + Tween-80) was 116 % of control and the T/C [13] was 102 % of control.
In the case of `C=CC(=O)NCCCCCC(=O)O`, the T/C [4] is reported as 103 % of control, the T/C [5] is reported as 98 % of control and the T/C [6] is reported as 103 % of control.
For `CC1CCN(CC(O)C(C)(C)Oc2ccc(-c3ccccc3)cc2)CC1` (configuration not stated), the T/C [14] was 97 % of control and the T/C [15] was 93 % of control.
In the case of `C[Si](CCCNCCN)(O[Si](C)(CCCNCCN)c1ccccc1)c1ccccc1` (configuration not stated), the T/C (dose: 15.0 mg/kg/injection, schedule: Q01DX005 (ip), vehicle: saline with Tween-80) is reported as 109 % of control, the T/C (dose: 30.0 mg/kg/injection, schedule: Q01DX005 (ip), vehicle: saline with Tween-80) is reported as 105 % of control and the T/C [16] is reported as 100 % of control.
With `O=C(O)CCCCc1ccc(CCCCC(=O)O)cc1` the T/C (dose: 18.75 mg/kg/injection, schedule: Q04DX003 (ip), vehicle: Klucel (hydroxypropylcellulose) (HPC)) was 106 % of control, the T/C (dose: 37.5 mg/kg/injection, schedule: Q04DX003 (ip), vehicle: Klucel (hydroxypropylcellulose) (HPC)) was 111 % of control and the T/C (dose: 75.0 mg/kg/injection, schedule: Q04DX003 (ip), vehicle: Klucel (hydroxypropylcellulose) (HPC)) was 113 % of control.
With `COC(=O)c1c(C(N)=O)c(C)n(NC(N)=O)c1C` the T/C [1] was 117 % of control, the T/C [2] was 107 % of control and the T/C [3] was 108 % of control.
In the case of `O=C(Nc1ccc(CCO)cc1)Nc1cc(C(F)(F)F)ccc1Cl`, the T/C [16] is reported as 89 % of control and the T/C (dose: 120.0 mg/kg/injection, schedule: Q01DX005 (ip), vehicle: saline with Tween-80) is reported as 90 % of control.
`Cc1c(COC(=O)NC(C)C)c(COC(=O)NC(C)C)c2n1CS(=O)C2` (configuration not stated) was tested, and the T/C (dose: 12.5 mg/kg/injection, schedule: Q01DX005 (ip), vehicle: saline with Tween-80) was 104 % of control, the T/C (dose: 25.0 mg/kg/injection, schedule: Q01DX005 (ip), vehicle: saline with Tween-80) was 111 % of control and the T/C [1] was 118 % of control. The T/C [3] was 176 % of control.
For `C=CCOC1CC(C)(O)Cc2cc3c(c(O)c21)C(=O)c1c(O)cc2c(c1C3=O)OC1OC2(C)C(O)C(N(C)C)C1O` (configuration not stated), the T/C (dose: 1.25 mg/kg/injection, schedule: Q01DX009 (ip), vehicle: other) was 114 % of control, the T/C (dose: 2.5 mg/kg/injection, schedule: Q01DX009 (ip), vehicle: other) was 120 % of control and the T/C (dose: 10.0 mg/kg/injection, schedule: Q01DX009 (ip), vehicle: other) was 123 % of control.
In the case of `Cc1nc(N)[nH]c(=O)c1N`, the T/C (dose: 12.5 mg/kg/injection, schedule: Q01DX005 (ip), vehicle: Klucel (hydroxypropylcellulose) (HPC)) is reported as 99 % of control, the T/C (dose: 25.0 mg/kg/injection, schedule: Q01DX005 (ip), vehicle: Klucel (hydroxypropylcellulose) (HPC)) is reported as 108 % of control and the T/C [14] is reported as 103 % of control and 98 % of control. The T/C [15] was 110 % of control.
`Clc1ccccc1N=Cc1ccc(C=Nc2ccccc2Cl)cc1` was tested, and the T/C (dose: 12.5 mg/kg/injection, schedule: Q01DX009 (ip), vehicle: Klucel (hydroxypropylcellulose) (HPC)) was 99 % of control and the T/C [10] was 92 % of control.
For `O=C(O)CCC(NC(=O)c1ccc(N(CCCO)CC2CNc3nc(NCCCO)[nH]c(=O)c3N2CCCO)cc1)C(=O)O` (configuration not stated), the T/C (dose: 50.0 mg/kg/injection, schedule: Q04DX003 (ip), vehicle: alkali diluted with saline) was 98 % of control, the T/C (dose: 100.0 mg/kg/injection, schedule: Q04DX003 (ip), vehicle: alkali diluted with saline) was 109 % of control and the T/C (dose: 200.0 mg/kg/injection, schedule: Q04DX003 (ip), vehicle: alkali diluted with saline) was 98 % of control.
For `O=c1[nH]c2cc(Cl)ccc2nc1/C=C(\O)c1ccccc1`, the T/C [7] was 96 % of control, the T/C [8] was 91 % of control and the T/C [9] was 92 % of control.
`Clc1ccc(C(CCOc2ccccc2Br)Cn2ccnc2)c(Cl)c1` (configuration not stated) was tested, and the T/C [11] was 89 % of control, the T/C [12] was 90 % of control and the T/C [13] was 101 % of control and 94 % of control.
For `COc1ccc(/C(C#N)=C/c2ccccc2)cc1`, the T/C (dose: 6.25 mg/kg/injection, schedule: Q01DX009 (ip), vehicle: suspension in saline) was 99 % of control and 103 % of control and 107 % of control, the T/C (dose: 12.5 mg/kg/injection, schedule: Q01DX009 (ip), vehicle: suspension in saline) was 100 % of control and 108 % of control and 114 % of control and the T/C [12] was 86 % of control. The T/C (dose: 25.0 mg/kg/injection, schedule: Q01DX009 (ip), vehicle: suspension in saline) was 100 % of control and 92 % of control and 98 % of control, the T/C [13] was 91 % of control and the T/C (dose: 50.0 mg/kg/injection, schedule: Q01DX009 (ip), vehicle: suspension in saline) was 107 % of control and 124 % of control. The T/C [17] was 91 % of control and the T/C [18] was 101 % of control.
`Nc1ccc(-c2ccc(N)c(Cl)c2)cc1Cl` was tested, and the T/C [13] was 104 % of control, the T/C [17] was 114 % of control and the T/C [18] was 112 % of control.
In the case of `COc1cc(Br)cc(OC)c1N`, the T/C [13] is reported as 97 % of control, the T/C [17] is reported as 100 % of control and the T/C [18] is reported as 105 % of control.
`C/C(=N\NC(=S)Nc1nccs1)c1ccccn1` was tested, and the T/C (dose: 100.0 mg/kg/injection, schedule: Q04DX003 (ip), vehicle: Klucel (hydroxypropylcellulose) (HPC)) was 99 % of control, the T/C (dose: 200.0 mg/kg/injection, schedule: Q04DX003 (ip), vehicle: Klucel (hydroxypropylcellulose) (HPC)) was 105 % of control and the T/C (dose: 400.0 mg/kg/injection, schedule: Q04DX003 (ip), vehicle: Klucel (hydroxypropylcellulose) (HPC)) was 96 % of control.
With `Oc1c(O)c(Br)c(Br)c(Br)c1Br` the T/C [5] was 107 % of control and 95 % of control and the T/C [6] was 111 % of control.
With `Cc1cc(C)n(C2=NCCN2)n1` the T/C [19] was 99 % of control and the T/C [20] was 96 % of control.
For `C1Cc2onc(-c3noc4c3CCC4)c2C1`, the T/C [19] was 104 % of control, the T/C [20] was 96 % of control and the T/C (dose: 240.0 mg/kg/injection, schedule: Q01DX005 (ip), vehicle: saline) was 99 % of control.
`C=C[CH2][Sn]([CH3])([CH3])[CH2]C=C` was tested, and the T/C (dose: 50.0 mg/kg/injection, schedule: Q01DX005 (ip), vehicle: saline) was 96 % of control and the T/C (dose: 100.0 mg/kg/injection, schedule: Q01DX005 (ip), vehicle: saline) was 107 % of control.
